From ChEMBL document CHEMBL1126256, “Structural modifications of camptothecin and effects on topoisomerase I inhibition” (J Med Chem, 1992)
Each block holds one molecule with its values, some of them ahead of it. Calls of active or inactive are those of the source. The rule behind the calls is not given here.

How the values were obtained:
[1] = target: T1, DNA topoisomerase 1 (Homo sapiens) (UniProt P11387); experiment: Relative activity against DNA topoisomerase I was measured at concentration of 833 uM to that of camptothecin; Inactive
T1 sequence (whole entry): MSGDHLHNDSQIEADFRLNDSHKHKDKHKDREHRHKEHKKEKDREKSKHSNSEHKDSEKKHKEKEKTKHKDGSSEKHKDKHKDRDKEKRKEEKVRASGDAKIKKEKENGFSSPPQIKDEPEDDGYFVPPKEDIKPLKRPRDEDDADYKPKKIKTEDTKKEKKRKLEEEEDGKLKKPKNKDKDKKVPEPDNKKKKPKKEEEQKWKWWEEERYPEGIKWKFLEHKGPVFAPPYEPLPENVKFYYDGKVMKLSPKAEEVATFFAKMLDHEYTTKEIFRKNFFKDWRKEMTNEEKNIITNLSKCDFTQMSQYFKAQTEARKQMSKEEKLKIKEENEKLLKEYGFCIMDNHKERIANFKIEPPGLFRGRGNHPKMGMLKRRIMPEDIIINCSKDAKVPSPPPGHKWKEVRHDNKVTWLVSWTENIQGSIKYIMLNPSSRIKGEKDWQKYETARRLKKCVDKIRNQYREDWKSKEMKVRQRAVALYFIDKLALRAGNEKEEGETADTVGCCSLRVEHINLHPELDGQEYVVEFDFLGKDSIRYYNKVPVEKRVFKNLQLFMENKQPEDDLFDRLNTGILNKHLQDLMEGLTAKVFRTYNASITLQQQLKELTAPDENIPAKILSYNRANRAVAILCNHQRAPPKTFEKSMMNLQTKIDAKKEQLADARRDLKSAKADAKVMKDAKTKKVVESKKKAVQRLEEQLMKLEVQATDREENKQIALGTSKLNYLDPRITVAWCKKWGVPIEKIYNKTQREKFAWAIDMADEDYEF

[2] = target: T1, DNA topoisomerase 1 (Homo sapiens); experiment: Relative activity against DNA topoisomerase I was measured at concentration of 83 uM to that of camptothecin; Active, 10 fold less than camptothecin
[3] = target: T1, DNA topoisomerase 1 (Homo sapiens); experiment: Relative activity against Topoisomerase I was measured at concentration of 25 uM to that of camptothecin; Inactive
[4] = target: T1, DNA topoisomerase 1 (Homo sapiens); experiment: Relative activity against DNA topoisomerase I was measured at concentration of 625 uM to that of camptothecin; Inactive
[5] = target: T1, DNA topoisomerase 1 (Homo sapiens); experiment: Relative activity against DNA topoisomerase I was measured at concentration of 277 uM to that of camptothecin; inactive
[6] = target: T1, DNA topoisomerase 1 (Homo sapiens); experiment: Relative activity against DNA topoisomerase I was measured at concentration of 554 uM to that of camptothecin; Active, 50 fold less than camptothecin
[7] = target: T1, DNA topoisomerase 1 (Homo sapiens); experiment: Relative activity against DNA topoisomerase I was measured at concentration of 166 uM to that of camptothecin; Inactive
[8] = target: T1, DNA topoisomerase 1 (Homo sapiens); experiment: Relative activity against DNA topoisomerase I was measured at concentration of 12 uM to that of camptothecin
[9] = target: T1, DNA topoisomerase 1 (Homo sapiens); experiment: Relative activity against Topoisomerase I was measured at concentration of 360 uM to that of camptothecin; Active, 35 fold less than camptothecin
[10] = target: T1, DNA topoisomerase 1 (Homo sapiens); experiment: Relative activity against DNA topoisomerase I was measured at concentration of 200 uM to that of camptothecin; Inactive

- Relative activity [1]: inactive
Compound: CCC1C(=O)OCc2c1c(C(=O)OC)c1n(c2=O)CC2Cc3ccccc3CC12 (configuration not stated)

- Relative activity [1]: inactive
Compound: CCC(C(=O)OC)c1cc(=O)n2c(c1C(=O)OC)C1Cc3ccccc3CC1C2 (configuration not stated)

- Relative activity [1]: inactive
Compound: COC(=O)Cc1cc(=O)n2c(c1C(=O)OC)C1Cc3ccccc3CC1C2 (configuration not stated)

- Relative activity [2]: Active
- Relative activity [3]: inactive
Compound: CCC1C(=O)OCc2c1cc1n(c2=O)Cc2ccccc2-1 (configuration not stated)

- Relative activity [4]: inactive
Compound: CCC(C(=O)OC)c1cc(=O)n2c(c1C(=O)OC)-c1nc3ccccc3cc1C2 (configuration not stated)

- Relative activity [5]: inactive
- Relative activity [6]: Active
Compound: COC(=O)Cc1cc2n(c(=O)c1)Cc1cc3ccccc3nc1-2

- Relative activity [7]: inactive
Compound: COC(=O)Cc1cc(=O)n2c(c1C(=O)OC)-c1nc3ccccc3cc1C2

- Relative activity [8]: inactive
- Relative activity [9]: Active
Compound: CCC1C(=O)OCc2c1c(C(=O)OC)c1n(c2=O)Cc2ccccc2-1 (configuration not stated)

- Relative activity [10]: inactive
Compound: CCC(C(=O)OC)c1cc2n(c(=O)c1)Cc1cc3ccccc3nc1-2 (configuration not stated)
